The target in the assay is T1, human mGluR2 (Homo sapiens, UniProt Q14416).
T1 construct: expressed in transfected cells
The experiment in a line: FLIPR Ca2+ mobilization assay, potentiation of glutamate response. It is filed as cell-based. The conditions noted are these: CHO dhfr- cells expressing human mGluR2 and Gα16; potentiation after EC20 glutamate (900 nM); read-out: Representative FLIPR EC50 Values: IC50. How it is done:
Inhibition constants are determined as follows. The compounds of the present invention may be tested in a fluorescence laser imaging plate reader (FLIPR) based assay. This assay is a common functional assay to monitor Ca^2+ mobilization in whole cells expressing recombinant receptor coupled with a promiscuous G-protein. CHO dhfr− cells stably expressing recombinant human mGluR2 and Gα16 loaded with Fluo-4 AM (Invitrogen, Carlsbad Calif.) are treated with dose responses of compounds and the Ca^2+ response is monitored on a FLIPR384 (Molecular Devices, Sunnydale Calif.) for agonist activity. The potentiation response is monitored after a subsequent addition of an EC20 concentration of glutamate (900 nM). The maximum calcium response at each concentration of compound for agonist or potentiation are plotted as dose responses and the curves are fitted with a four parameters logistic equation giving EC50 and Hill coefficient using the iterative non linear curve fitting software program.
On the technique in general: Calcium flux is commonly read through the fluorescence of an indicator in the cells.

SMILES strings stand for the structures.

T1 sequence (Q14416 19-872): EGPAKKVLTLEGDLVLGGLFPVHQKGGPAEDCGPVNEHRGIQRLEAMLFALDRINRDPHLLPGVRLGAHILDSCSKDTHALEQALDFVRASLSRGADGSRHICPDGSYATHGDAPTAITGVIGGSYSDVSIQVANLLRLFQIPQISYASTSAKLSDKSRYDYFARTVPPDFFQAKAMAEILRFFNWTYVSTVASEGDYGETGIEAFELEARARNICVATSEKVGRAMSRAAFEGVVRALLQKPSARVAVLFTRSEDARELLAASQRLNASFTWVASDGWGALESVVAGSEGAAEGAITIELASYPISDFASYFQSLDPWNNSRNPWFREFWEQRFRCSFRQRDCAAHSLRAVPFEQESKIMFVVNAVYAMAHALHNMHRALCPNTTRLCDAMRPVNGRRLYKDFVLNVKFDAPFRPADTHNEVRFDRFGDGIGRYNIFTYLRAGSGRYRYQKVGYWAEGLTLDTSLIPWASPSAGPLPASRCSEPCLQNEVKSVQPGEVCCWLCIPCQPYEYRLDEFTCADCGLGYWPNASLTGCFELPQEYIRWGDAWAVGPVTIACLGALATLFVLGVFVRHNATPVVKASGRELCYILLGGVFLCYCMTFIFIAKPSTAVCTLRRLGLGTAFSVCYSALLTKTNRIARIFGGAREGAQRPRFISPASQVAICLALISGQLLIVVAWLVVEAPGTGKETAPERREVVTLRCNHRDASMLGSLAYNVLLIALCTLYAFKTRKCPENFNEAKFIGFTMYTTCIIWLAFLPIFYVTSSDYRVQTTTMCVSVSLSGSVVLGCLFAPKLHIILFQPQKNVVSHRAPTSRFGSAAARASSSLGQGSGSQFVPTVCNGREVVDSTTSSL

Regarding `CN1c2cc(-c3cccc(CN4CCN(S(C)(=O)=O)CC4)n3)ccc2N(CC2CC2(F)F)S1(=O)=O` (stereo not drawn) [Compound 25-2], the EC50 (in general, the concentration needed to bring the measured effect to its halfway point) came out at 0.024 µM.

As to `CN1c2cc(-c3cc(CN4CCc5onc(O)c5C4)ccc3C#N)ccc2N(CC2CC2(F)F)S1(=O)=O` (stereo not drawn) [Compound 20-1, 2-{1-[(2,2-difluorocyclopropyl)methyl]-3-methyl-2,2-dioxido-1,3-dihydro-2,1,3-benzothiadiazol-5-yl}-4-[(3-hydroxy-6,7-dihydroisoxazolo[4,5-c]pyridin-5(4H)-yl)methyl]benzonitrile], the EC50 came to 0.0008 µM.

On to `CN1c2cc(-c3ccccc3C#N)ccc2N(CC2CC2)S1(=O)=O` [Compound 1-5, 2-[1-(cyclopropylmethyl)-3-methyl-2,2-dioxido-1,3-dihydro-2,1,3-benzothiadiazol-5-yl]benzonitrile], for which the EC50 is 0.005 µM.

`CN1c2cc(-c3cccc(CNc4ncccc4C#N)c3)ccc2N(CC2CC2)S1(=O)=O` [Compound 24-1, 2-({3-[1-(cyclopropylmethyl)-3-methyl-2,2-dioxido-1,3-dihydro-2,1,3-benzothiadiazol-5-yl]benzyl}amino)nicotinonitrile]: the EC50 worked out at 0.13 µM.

With `CC(=O)N1CCN(Cc2ccc(C)c(-c3ccc4c(n3)N(C)S(=O)(=O)N4CC3CC3(F)F)c2)CC1` (stereo not drawn) [Compound 39-2, 1-[4-(3-{1-[(2,2-difluorocyclopropyl)methyl]-3-methyl-2,2-dioxido-1,3-dihydro[1,2,5]thiadiazolo[3,4-b]pyridin-5-yl}-4-methylbenzyl)piperazin-1-yl]ethanone], the EC50 was 0.011 µM.

With `CN1c2nc(-c3ccccc3C#N)ccc2N(CC(C)(C)C)S1(=O)=O` [Compound 30-2, 2-[1-(2,2-dimethylpropyl)-3-methyl-2,2-dioxido-1,3-dihydro[1,2,5]thiadiazolo[3,4-b]pyridin-5-yl]benzonitrile], the EC50 was 0.009 µM.

With `CN1c2nc(-c3cccc(CN4CCS(=O)(=O)CC4)c3F)ccc2N(CC2CC2(F)F)S1(=O)=O` (stereo not drawn) [Compound 42-3, 1-[(2,2-difluorocyclopropyl)methyl]-5-{3-[(1,1-dioxidothiomorpholin-4-yl)methyl]-2-fluorophenyl}-3-methyl-1,3-dihydro [1,2,5]thiadiazolo[3,4-b]pyridine 2,2-dioxide], the EC50 was determined as 0.009 µM.

With `CN1c2nc(-c3cc(Oc4ccnc(C#N)c4)ccc3C#N)ccc2N(CC2CC2(F)F)S1(=O)=O` (stereo not drawn) [Compound 36-2, 4-(4-cyano-3-{1-[(2,2-difluorocyclopropyl)methyl]-3-methyl-2,2-dioxido-1,3-dihydro[1,2,5]thiadiazolo[3,4-b]pyridin-5-yl}phenoxy)pyridine-2-carbonitrile], the EC50 is 0.003 µM.

Take `CN1c2cc(-c3cccc(N4CCS(=O)(=O)CC4)c3)ccc2N(CC2CCC2)S1(=O)=O` [Compound 8-1, 1-(cyclobutylmethyl)-5-[3-(1,1-dioxidothiomorpholin-4-yl)phenyl]-3-methyl-1,3-dihydro-2,1,3-benzothiadiazole 2,2-dioxide]: the EC50 came out at 0.11 µM.

As for `Cc1ccc(C(C)(C)O)cc1-c1ccc2c(n1)N(C)S(=O)(=O)N2CC1CC1` [Compound 38-3, 2-{3-[1-(cyclopropylmethyl)-3-methyl-2,2-dioxido-1,3-dihydro [1,2,5]thiadiazolo[3,4-b]pyridin-5-yl]-4-methylphenyl}propan-2-ol], the concentration for a half-maximal effect (EC50) is 0.025 µM.

In the case of `Cc1cccnc1-c1ccc2c(c1)N(C)S(=O)(=O)N2CC1CC1` [Compound 3-1, 1-(cyclopropylmethyl)-3-methyl-5-(3-methylpyridin-2-yl)-1,3-dihydro-2,1,3-benzothiadiazole 2,2-dioxide], the EC50 is 0.49 µM.

`CN1c2cc(-c3cc(C(C)(C)O)ccc3F)ccc2N(CC2CC2(F)F)S1(=O)=O` (stereo not drawn) [Compound 17-2]: the EC50 was 0.022 µM.

As for `CN1c2cc(-c3cc(Oc4ccnc(C#N)c4)ccc3C#N)ccc2N(CC2CC2(F)F)S1(=O)=O` (stereo not drawn) [Compound 12-4, 4-(4-cyano-3-{1-[(2,2-difluorocyclopropyl)methyl]-3-methyl-2,2-dioxido-1,3-dihydro-2,1,3-benzothiadiazol-5-yl}phenoxy) pyridine-2-carbonitrile], the EC50 stood at 0.0005 µM.

Regarding `CN1c2nc(-c3ccc(N4CCN(S(C)(=O)=O)CC4)cc3)ccc2N(CC2CC2(F)F)S1(=O)=O` (stereo not drawn) [Compound 32-2, 1-[(2,2-difluorocyclopropyl)methyl]-3-methyl-5-{4-[4-(methylsulfonyl)piperazin-1-yl]phenyl}-1,3-dihydro[1,2,5]thiadiazolo[3,4-b]pyridine 2,2-dioxide], the EC50 was found to be 0.14 µM.

As for `Cc1ccc(CN2CCN(C(=O)[C@@H](C)O)CC2)cc1-c1ccc2c(n1)N(C)S(=O)(=O)N2CC1CC1(F)F` (stereo partly drawn) [Compound 43-3, (2R)-1-[4-(3-{1-[(2,2-difluorocyclopropyl)methyl]-3-methyl-2,2-dioxido-1,3-dihydro[1,2,5]thiadiazolo[3,4-b]pyridin-5-yl}-4-methylbenzyl)piperazin-1-yl]-2-hydroxypropan-1-one], the EC50 came out at 0.008 µM.

For the origin of these results see patent US9108937B2 (Merck Sharp & Dohme Corp., priority 2010, dated 2015).
